Measurements reported in patent US8119614B2, “Substitution derivatives of N6-benzyladenosine, methods of their preparation, their use for preparation of drugs, cosmetic preparations and growth regulators, pharmaceutical preparations, cosmetic preparations and growth regulators containing these compounds” (Ustav Experimentalni Botaniky Akademie Ved Ceske Republiky, priority 2002, dated 2012).

Columns and labels:
[1] = test system: human malignant melanoma cells G361; assay: In vitro cytotoxic activity, Calcein AM assay, G-361; assay type: cell-based; settings: 72 hours, read-out: IC 50 G-361
Outline: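 Cells seeded at 10^4 per well, pre-incubated 24 h, then exposed to six 4-fold dilutions (top well concentration usually 166.7 μM, duplicates) for 72 h at 37 °C. Viability read by Calcein AM fluorescence after 1 h; GI50 taken from dose-response curves relative to control wells.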

[2] = test system: HL-60 cells; assay: Induction of apoptosis in HL-60 cells (nuclear morphology, DNA fragmentation); assay type: cell-based, human; settings: 24 h (FIG. 5-7)
Experimental: (§1) Cell culture. A suspension of human promyelocytic HL-60 cells was cultured in RPMI-1640 medium supplemented with a 10% calf foetal serum and antibiotics in 5% CO2 atmosphere at 37° C. Cells were maintained at density from 1×10^5 to 6×10^5 cells per ml. HL-60 cells were obtained from ECACC.
Morphological analysis of cell nuclei. Cells were harvested, washed in PBS, and fixed in an ice-cold methanol+acetic acid (3:1) fixation mixture. Aliquots of cells were spread on glass slides and stained with Hoechst 33342 (2 μg/ml) in PBS. The morphology of cell nuclei was examined by a fluorescence microscope (Mlejnek and Kuglik 2000).
DNA fragmentation assay. Aliquots of cells were washed in PBS and lysed by addition of DNA lysis buffer (50 mM Tris/HCl, pH=8.0, 10 mM EDTA, 0.5% sodium lauroyl sarcosine, and 0.5 mg/ml proteinase K) at 37° C. overnight. Samples were treated further with DNase-free RNase-A (0.2 mg/ml) at 37° C. for 3 h. The resulting extracts were loaded onto 1.8% agarose gel containing ethidium bromide (Mlejnek and Kuglik 2000).

[3] = test system: HL-60 cells; assay: Cell cycle analysis (flow cytometry); assay type: cell-based, human; settings: 5 μM, 24 h (FIG. 8)
Experimental: as §1
Cell cycle analysis. Cells were washed in PBS and then fixed in 70% ethanol at −20° C. over night. Fixed cells are washed in PBS and stained in PBS containing PI (20 μg/ml) and RNase A (100 μg/ml) for 30 min at 37° C. prior to FACScan analysis (Mlejnek and Kolman 1999).

[4] = test system: caspase-3; assay: Caspase protease activity measurement in cell extracts, caspase-3; assay type: cell-based, human; settings: 20 μM, substrate Ac-DEVD-AMC (FIG. 9)
Experimental: Caspase protease activity measurement. Cells were washed in PBS and then extracted in buffer [50 mM HEPES, pH 7.4, 1 mM EDTA, 0.1% Chaps, 5 mM DTT, and proteinase inhibitor cocktail (Roche)] on ice. Cell extracts were centrifuged for 30 min at 30 000×g at 4° C. Clarified extract were immediately analysed or stored at −80° C. Measurement of proteolytic activity was done using synthetic fluorogenic substrates Ac-DEVD-AMC and Ac-LEHD-AMC for caspase-3 and -9, respectively. The assay was carried out in 1 ml tubes, aliquots of lysates (200-300 μg of total protein) were mixed with 1 ml of buffer (25 mM PIPES/KOH, 2 mM EGTA, 5 mM DTT, and 0.1% Chaps, pH 7.3) and reactions were initiated by adding 50 μM substrate. Samples were incubated for 1 hour at 30° C. before the fluorescence was determined. Excitation and emission wavelengths were the same for both substrates (380 nm and 445 nm, respectively).

[5] = test system: Rosa multiflora; assay: In vitro and post vitro multiplication and rooting of rose; assay type: in vivo; settings: for Root number per plant / Total root length per plant (cm): Ex vitro, after four weeks of acclimatising; for Flower number per explant / Number of new shoots per explant / Root number per explant / Total root length per explant (cm): In vitro, 10 μM, 8 weeks
[6] = test system: spring wheat (variety Sandra); assay: Field studies: yield analysis of spring wheat crop; assay type: in vivo; settings: spray of 10^−6 molar solution, Control = 100.0
Experimental: Crops (over the 4-year period) of spring wheat were sown in the experimental fields of Czech Agriculture University (CZU) (region of sugar beet production type) at a seeding rate of 400 germinative grains·m^−2 into ploughed and shoddy soil containing 116.1 mg/kg P, 228.3 mg/kg K, and 211.8 mg/kg Mg (agrochemical analyses were done at Department of Pedology CZU) (interval between ploughing and sowing is usually 3-4 days, longer only in case of adverse weather conditions). Preceding crop was rape. Soil preparation was done by the classical way using skid and harrow and after seeding is rolled.
Height of plants, leaf area, dry matter, development of vegetation opex—bases of future spike, and number of spikelets were monitored after germination in 14 day intervals, […]. From these primary data, values used in production physiology are derived, as leaf area index LAI, photosynthetic capacity LAD, tillering potential. Experiments with treatment of spring wheat crop (variety Sandra) are carried out on the field (area 10 m^2, four replicates) by spraying 1 litr of 10^−6 molar solution of tested compound (cytokinin) at the transition period from jointing stage to athesis stage (49 DC).
Yield analysis, evaluating spike lenght and seed number per spikelet (Σ Z/K) were carried out for 30 plant per each variant, yield from 1 m^2 and 1000 grain weight (HTS) was determined from 8 replicates, yield per ha was subsequently calculated.

## COc1cccc(CNc2ncnc3c2ncn3[C@@H]2O[C@H](CO)[C@@H](O)[C@H]2O)c1O [2-hydroxy-3-methoxybenzylamino, 6-(2-hydroxy-3-methoxybenzylamino)purine riboside]
[1]
  IC50: 148 µM
[2]
  induction of HL-60 cell death / apoptosis: induce HL-60 cell death, with typical morphological and biochemical characteristics of apoptosis
[3]
  effect on cell cycle: does not inhibit cell cycle in certain control point(s), but rather unspecifically
[4]
  activation of caspase-3: activate caspase proteases, especially caspase-9 and -3

## COc1ccccc1CNc1ncnc2c1ncn2[C@@H]1O[C@H](CO)[C@@H](O)[C@H]1O [2-methoxybenzylamino, 6-(2-methoxybenzylamino)purine riboside]
[1]
  IC50: > 167 µM
[5]
  Root number per plant: 1.6
  Total root length per plant (cm): 4.8 cm
  Flower number per explant: 0.17
  Number of new shoots per explant: 1.4
  Root number per explant: 0.0
  Total root length per explant (cm): 0.0 cm

## OC[C@H]1O[C@@H](n2cnc3c(NCc4ccc(Cl)c(Cl)c4)ncnc32)[C@H](O)[C@@H]1O [3,4-dichlorobenzylamino, 6-(3,4-dichlorobenzylamino)purine riboside]
[6]
  HTS (%) (1000 grain weight): 101.5%
  Yield(%): 113.3%
  Σ Z/K (%) (seed number per spikelet): 111.9%
  Σ spike/m^2 (%): 99.7%

## OC[C@H]1O[C@@H](n2cnc3c(NCc4cccc(Br)c4)ncnc32)[C@H](O)[C@@H]1O [3-bromobenzylamino, 6-(3-bromobenzylamino)purine riboside]
[6]
  HTS (%) (1000 grain weight): 101.5%
  Yield(%): 131.8%
  Σ Z/K (%) (seed number per spikelet): 123.8%
  Σ spike/m^2 (%): 104.9%

## OC[C@H]1O[C@@H](n2cnc3c(NCc4cccc(Cl)c4)ncnc32)[C@H](O)[C@@H]1O [3-chlorobenzylamino, 6-(3-chlorobenzylamino)purine riboside]
[6]
  HTS (%) (1000 grain weight): 108.3%
  Yield(%): 128.8%
  Σ Z/K (%) (seed number per spikelet): 119.1%
  Σ spike/m^2 (%): 100.5%

## OC[C@H]1O[C@@H](n2cnc3c(NCc4cccc(F)c4)ncnc32)[C@H](O)[C@@H]1O [3-fluorobenzylamino, 6-(3-fluorobenzylamino)purine riboside]
[1]
  IC50: 15.7 µM

## COc1cccc(CNc2ncnc3c2ncn3[C@@H]2O[C@H](CO)[C@@H](O)[C@H]2O)c1 [3-methoxybenzylamino, 6-(3-methoxybenzylamino)purine riboside]
[1]
  IC50: > 167 µM
[5]
  Root number per plant: 1.4
  Total root length per plant (cm): 3.5 cm
  Flower number per explant: 0.00
  Number of new shoots per explant: 5.6
  Root number per explant: 0.0
  Total root length per explant (cm): 0.0 cm
